Key:
[1] = test system: AK4.4 tumors; experiment: Orthotopic AK4.4 PDAC model in obese FVB mice, metformin in drinking water; type: in vivo, mouse
Excerpt: (§1) Wild-type (WT) C57BL/6 and FVB male mice were originally obtained from The Jackson Laboratory (The Jackson Laboratory, Bar Harbor, Me.) and bred and maintained in our defined-flora animal facility. Mice were maintained on a 12-h light-dark cycle in a temperature-controlled barrier facility, with ad libitum access to food and acidified water. To generate obese/diabetic mouse models, mice (6-weeks old) were given a 60% fat diet (D12492, Research Diets, New Brunswick, N.J.) for 10 weeks as previously described (49-51). For tumor experiments, the PAN02 and AK4.4 syngeneic PDAC models were used in C57BL/6 and FVB immunocompetent mice, respectively. PAN02 cells (SMAD4-m174) (52) were obtained from ATCC. AK4.4 cells (KrasG12D and p53^+/−) were isolated from mice generating spontaneous pancreatic tumors (Pt∫1-Cre/LSL-Kras^G12D/p53^Loxi−) (53). Orthotopic pancreatic tumors were generated by implanting a small piece (1 mm^3) of viable tumor tissue (from a source tumor in a separate donor animal) into the pancreas of a 6-8- week-old male lean or obese FVB (AK4.4 model) or C57BL/6 (PAN02 model) mouse. Both tumor models used were authenticated by IDEXX Laboratories. (PAN02: IDEXX RADIL Case # 22366-2013. AK4.4: IDEXX RADIL Case # 27818-2014).
(§2) At day 21, plasma and tumor samples were collected, and tumors were weighed and processed for further analysis.
(§3) This can be translated to the human equivalent dose by using the Reagan-Shaw method (54). According to the formula for the human equivalent dose [(mg/kg)=animal dose (mg/kg)×animal (km)/human (km). Km for a 60 kg human adults equals 37 and for a 20 g mouse equals 3], the human equivalent of murine dose of 300 mg/kg is 1459 mg for an average sized 60 kg adult human. Therefore, the selected dose in the present study is within the safe therapeutic range recorded in humans. […] This was compatible with the therapeutic periods reported in previous studies (55, 56). […] The amount added to each animal cage was calculated based on the average daily water intake for that cage during a period of 2 weeks prior to treatment initiation, and adjusted every three days based on water consumption and body weight of the animals. […] For in vitro experiments, a range of concentration from 0.05 to 25 mM depending on the cell line used, as discussed below.
(§4) Immediately following excision, tumor tissue was snap frozen and stored in liquid nitrogen. Total RNA was extracted and relative gene expression for macrophage M1/M2 markers was determined using a Sybr-green based standard protocol. In addition, total RNA was extracted and relative gene expression was determined using RT2 Profiler PCR Arrays system (Qiagen) on a Stratagene Mx3000P QPCR System using pre-made pathway-focused arrays (“Fibrosis”-Cat. Number: PAMM011Z; “Epithelial to Mesenchymal Transition (EMT)”-Cat. Number: PAMM090Z; “TGF-β signaling targets”-PAMM235Z; “Extracellular Matrix & Adhesion Molecules”-Cat. Number: PAMM013Z; and “Common cytokines ”-Cat. Number: PAMM021Z).
(§5) Each tumor sample was homogenized directly in lysis buffer for protein extraction. 20 ug of denatured protein per sample was loaded on 7%, 10% and 12% SDS-polyacrylamide gels. Antibodies used: phospho-p38 MAPKT^180/Y182 and p38; phospho-JNK (SAPK/JNK)^Thr183/Tyr185 and JNK; phospho-AKT^Ser473 and AKT, phospho-ERK(p44/42 MAPK)^T202/Y204 and ERK; phospho-NF-κB^Ser536 and NK-κB; p65^Ser536; phospho-Smad2^Ser465/467 and Smad2; phospho-IGF-I Receptor β^Tyr1135 and IGF; Phospho-IRS-1^Ser612 and IRS; IR; phpspho-stat3^Tyr705 and stat3; Phospho-AMPKα^Thr172 and Ampkα; phospho-Ampkβ^Ser108 and Ampk; phospho-ACC^Ser79 and ACC; Phospho-PDGF Receptor β^Tyr751 and PDGF Receptor β and snail, c-cadherin and vimentin, TGF-β, β-catenin, twist, LC3B. […]

[2] = test system: PAN02 tumors; experiment: Orthotopic PAN02 PDAC model in obese C57BL/6 mice, metformin in drinking water; type: in vivo, mouse
Excerpt: as §1, §2, §3, §4, §5

[3] = patients with type 2 diabetes taking this drug; cited from earlier work
[4] = test system: pancreatic cancer; details: newly diagnosed pancreatic cancer cases, diabetic patients; cited from earlier work
[5] = obese FVB mice, metformin 300 mg/Kg
[6] = obese FVB mice, metformin 300 mg/Kg in drinking water
[7] = obese FVB mice, metformin 300 mg/Kg in drinking water, day 7 to 21
[8] = TAMs from PAN02 tumors in vivo, qPCR
[9] = obese C57BL/6 mice, metformin 300 mg/Kg
[10] = particularly evident in the more metastatic model PAN02

CN(C)C(=N)N=C(N)N [metformin, 3-(diaminomethylidene)-1,1-dimethylguanidine]
expression of genes involved in ECM remodeling (including MMPs) and EMT ([1]; PCR array, pooled samples): reduced the expression
E-cadherin, protein expression ([1]; Western blot): increased
EMT marker vimentin, protein expression ([1]; Western blot): decreased
activation of metabolic pathways in tumors ([1]; Western blot): did not affect the activation of metabolic pathways
expression of the autophagy marker L3CB ([1]; Western blot): unchanged
reduction of metalloproteinase 9 (MMP9) protein ([1]; Western blot, metformin 300 mg/Kg): 70%
MMP activity in tumors ([1]; compared to control mice): decreased
TAM levels lower with metformin treatment (F4/80) [1, 5]: 60%
activation of STAT3 in whole tumors [1, 5]: decreased activation of STAT3
expression of IL-1β and CXCL-1 in tumors (multiplex protein array) [1, 5]: reduced the expression of IL-1β and CXCL-1
decrease of percentage of activated (αSMA) PSCs that co-express HA [1, 6]: 58%
decrease of percentage of activated (αSMA) PSCs that co-express collagen-I [1, 6]: 38%
expression of AT1 in tumors (Western blot) [1, 6]: reduce the expression of AT1
reduced expression of HA [1, 7]: 64%
reduced expression of collagen-I [1, 7]: 35%
body weight ([1]; tumor-bearing mice): no change in body weight
expression of M1 markers in flow-sorted TAMs [2, 8]: without significantly affecting
expression of M2 marker Arg-1 in flow-sorted TAMs [2, 8]: 1/2
expression of M2 marker IL-10 in flow-sorted TAMs [2, 8]: 2/3
activation and phosphorylation of IGFR-1 and IRS-1 in tumors ([2]; Western blot): trend for reduced activation and phosphorylation
activation of ACC in tumors ([2]; Western blot): increased
expression of the autophagy marker L3CB ([2]; Western blot): unchanged
average MMP-2 levels in metformin treated tumors ([2]; Western blot, not significant): approximately half
IL-1β in tumors ([2]; after metformin treatment): reduction of IL-1β
TAM levels lower with metformin treatment ([2]; flow cytometry, not significant): ~30%
activation of STAT3 in whole tumors [2, 9]: decreased activation of STAT3
p38 activation in whole tumors [2, 9]: trend for reduced p38
decreased expression of HA ([2]; obese C57BL/6 mice, metformin 300 mg/Kg in drinking water, did not reach statistical significance): 40%
reduced density of HA positive activated-PSCs ([2]; obese C57BL/6 mice, metformin 300 mg/Kg, did not reach significance): 57%
decreased expression of collagen-I ([2]; obese C57BL/6 mice, metformin 300 mg/Kg, did not reach statistical significance): 22%
reduced density of collagen-I positive activated PSCs in tumors ([2]; obese C57BL/6 mice, metformin 300 mg/Kg, significant): 54%
average number of mesenteric peritoneal and retroperitoneal wall metastasis per mouse [2, 10]: reduced
incidence of metastasis (number of mice affected) [2, 10]: reduced the incidence of metastasis
body weight ([2]; tumor-bearing mice): no change in body weight
approximate plasma concentration of metformin [3]: ~0.05 mM
reduced risk of death [4]: 32%
